Data published in the SangsterLogP compilation.

Experiment: method code SF-AS, from DOI: 10.1016/0014-5793(90)81139-f, PMID: 2387393
Details: pH 2.0

logD	Compound
0.39	COc1c(O)c(OC)c(OC)c(O)c1OC
0.27	COC1=CC(=O)C=CC1=O
0.47	COc1cc(O)ccc1O
1.02	COc1c(O)cc(C)c(O)c1OC
1.21	CC1=CC(=O)C=C(Br)C1=O
-0.05	COC1=CC(=O)C=C(OC)C1=O
1.38	Cc1cc(O)cc(Br)c1O
1.6	COc1c(O)c(C)c(C)c(O)c1OC
1.26	COC1=C(OC)C(=O)C(C)=C(C)C1=O
0.17	COc1cc(O)cc(OC)c1O
1.69	Cc1cc(O)c(C)c(C)c1O

Compound	logD
CC1=CC(=O)C=CC1=O	0.67
